Patent publication US20110152252A1 (priority 2007, published 2011)
Like-named read-outs stand apart in the source and are kept apart here.

What was measured:
[1] = tested on: Gb3-expressing HT-29 cells; assay: cells; type: cell-based
[2] = tested on: periampular tumors in APC^1638N mice; settings: mouse, in vivo
[3] = molecular target: mitochondrial peripheral benzodiazepine receptor, mPBR (Homo sapiens, UniProt P30536); settings: cited from earlier work
mitochondrial peripheral benzodiazepine receptor, mPBR, sequence (P30536 whole entry): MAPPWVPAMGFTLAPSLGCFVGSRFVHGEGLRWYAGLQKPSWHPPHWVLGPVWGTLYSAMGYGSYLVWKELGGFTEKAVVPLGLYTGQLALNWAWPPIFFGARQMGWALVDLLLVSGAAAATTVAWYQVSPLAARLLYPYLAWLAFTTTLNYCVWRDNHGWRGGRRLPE

SN-38
IC50 ([1]; read-out: IC50): 0.03 µM

CCc1c2c(nc3ccc(OC(=O)N4CCC(N5CCCCC5)CC4)cc13)-c1cc3c(c(=O)n1C2)COC(=O)[C@]3(O)CC [CPT11]
IC50 ([1]; Homo sapiens, HT-29): 70 µM | inflammatory reaction in the periampular region (pathology) [2]: weak and very moderate inflammatory reaction | tumor growth / development of periampular tumors [2]: periampular tumors developed | tumor lesions detected (pathology) [2]: high-grade adenomas and carcinomas could be detected

RO5-4864
Ki [3]: 23 nM
